# Measurements taken from patent publication US6649626B1, “N-substituted 1-(lactone) isoquinolones for treating nervous disorders” (Centre National de la Recherche Scientifique (CNRS), priority 1999, dated 2003).
# Legend:
# [1] = biological target: T1, α1β2γ2 subtype of the GABA receptor (Rattus norvegicus, UniProt P18508+P62813+P63138); assay: Electrophysiology: modulation of GABA currents in Xenopus oocytes expressing recombinant GABA-A receptors; format: cell-based; settings: α1β2γ2 in oocytes; for % stimulation of the GABA currents (100 μM): 100 μM compound with GABA
# T1 construct: expressed in transfected cells; host or cells: Xenopus laevis oocytes (cRNA injection)
# [2] = biological target: T2, benzodiazepine-binding site of the GABA-A receptor (Rattus norvegicus, UniProt P18508+P62813); assay: Displacement of tritiated flunitrazepam from brain membranes; settings: tissue not stated; for inhibition at 100 µM: read-out: Inhibition of the tritiated ligands % Flu (100 μM)
# T2 construct: IC50 Flu / BZ receptor; other: cerebellum (ce); other: cerebellum (ce; BZ1 subtype); other: 10 μM; cerebellum; other: 100 μM; other: 0.5 μM
# [3] = tested on: Ro15-4513 binding (GABA-A receptor); assay: Ro15-4513 displacement; settings: 100 μM
# [4] = tested on: GABA-binding site of the GABA-A receptor; assay: Displacement of tritiated muscimol from brain membranes
# [5] = tested on: picrotoxin-binding site of the GABA-A receptor; assay: Displacement of 35S-TBPS from brain membranes; set-up: species or system rats
# T2 sequence (P62813 28-455): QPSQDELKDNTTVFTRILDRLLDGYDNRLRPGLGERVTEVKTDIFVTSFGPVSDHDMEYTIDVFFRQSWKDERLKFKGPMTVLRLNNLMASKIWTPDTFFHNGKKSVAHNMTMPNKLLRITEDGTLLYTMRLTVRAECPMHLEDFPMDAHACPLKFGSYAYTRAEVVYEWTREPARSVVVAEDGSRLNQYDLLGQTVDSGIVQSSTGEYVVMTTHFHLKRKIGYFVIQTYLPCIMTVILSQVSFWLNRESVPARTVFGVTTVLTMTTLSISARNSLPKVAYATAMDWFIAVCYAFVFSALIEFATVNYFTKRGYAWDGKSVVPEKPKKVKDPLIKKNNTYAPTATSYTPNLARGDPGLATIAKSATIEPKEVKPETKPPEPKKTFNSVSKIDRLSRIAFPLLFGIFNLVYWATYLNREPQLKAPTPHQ
# T2 sequence (P18508 39-466): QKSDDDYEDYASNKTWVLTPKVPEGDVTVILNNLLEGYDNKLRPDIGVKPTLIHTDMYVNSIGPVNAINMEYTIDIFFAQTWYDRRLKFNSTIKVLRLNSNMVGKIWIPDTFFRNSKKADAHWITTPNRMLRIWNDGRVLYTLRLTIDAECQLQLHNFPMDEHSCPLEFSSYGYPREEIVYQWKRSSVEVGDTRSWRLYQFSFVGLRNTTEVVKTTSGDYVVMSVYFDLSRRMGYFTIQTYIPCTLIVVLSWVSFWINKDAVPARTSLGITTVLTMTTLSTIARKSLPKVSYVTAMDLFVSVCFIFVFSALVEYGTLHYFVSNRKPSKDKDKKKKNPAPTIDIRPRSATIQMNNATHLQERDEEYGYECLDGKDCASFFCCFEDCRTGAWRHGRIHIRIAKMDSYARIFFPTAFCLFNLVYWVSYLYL
# T2 sequence (P63138 26-474 partner): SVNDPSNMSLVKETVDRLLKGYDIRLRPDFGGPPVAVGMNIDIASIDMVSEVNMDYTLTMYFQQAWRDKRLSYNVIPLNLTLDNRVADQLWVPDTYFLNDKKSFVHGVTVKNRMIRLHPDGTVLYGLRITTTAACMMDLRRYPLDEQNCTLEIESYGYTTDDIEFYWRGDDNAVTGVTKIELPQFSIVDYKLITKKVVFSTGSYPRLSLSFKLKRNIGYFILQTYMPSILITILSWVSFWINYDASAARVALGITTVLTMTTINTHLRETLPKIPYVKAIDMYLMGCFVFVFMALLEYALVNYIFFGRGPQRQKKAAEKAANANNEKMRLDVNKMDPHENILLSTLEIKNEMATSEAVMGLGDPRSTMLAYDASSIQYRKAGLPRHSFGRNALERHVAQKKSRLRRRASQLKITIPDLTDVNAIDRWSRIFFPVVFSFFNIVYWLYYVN
# T1 sequence (P62813 28-455): as the sequence (P62813 28-455) above
# T1 sequence (P63138 25-474 limits assumed): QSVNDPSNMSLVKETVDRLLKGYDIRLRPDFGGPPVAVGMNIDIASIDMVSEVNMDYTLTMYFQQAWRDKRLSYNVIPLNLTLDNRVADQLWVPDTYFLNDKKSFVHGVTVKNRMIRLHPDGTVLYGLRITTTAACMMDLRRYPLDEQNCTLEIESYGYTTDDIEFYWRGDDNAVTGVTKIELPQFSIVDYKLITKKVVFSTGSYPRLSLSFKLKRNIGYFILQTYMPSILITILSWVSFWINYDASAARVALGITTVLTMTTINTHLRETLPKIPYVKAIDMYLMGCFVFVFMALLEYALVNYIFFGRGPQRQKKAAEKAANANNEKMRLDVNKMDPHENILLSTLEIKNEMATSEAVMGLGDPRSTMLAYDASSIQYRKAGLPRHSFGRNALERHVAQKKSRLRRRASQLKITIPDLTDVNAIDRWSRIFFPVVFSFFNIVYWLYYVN
# T1 sequence (P18508 39-466): as the sequence (P18508 39-466) above
Structure (SMILES),Inhibition of the tritiated ligands % Flu (100 μM) [2],inhibition at 100 µM [2],% stimulation of the GABA currents (100 μM) [1],% stimulation of the GABA currents ([1]; 0.1 μM compound),Displacement of muscimol ([4]; 100 μM),also measured
"COc1cc2c(cc1OC)[C@H]([C@@H]1CCC(=O)O1)NCC2 (racemic) [Compound 27b, (±)-Threo-6,7-dimethoxy-1-(2,3,4,5-tetrahydro-5-oxo-2-furyl)-1,2,3,4-tetrahydroisoquinoline]",negligible,,,,,% stimulation of the GABA currents ([1]; 200 μM compound): 200 μM = −6%
COc1cc2c(cc1OC)C(C1CCC(=O)O1)N(C)CC2 (racemic) [Compound 28],,50%,,,,% stimulation of the GABA currents ([1]; 200 μM compound): 200 μM = +2%; Ro15-4513 displacement [3]: Ro15-4513 displacement 100 μM = 50%
COc1cc2c(cc1OC)[C@H]([C@@H]1C=C(C)C(=O)O1)N(C)CC2 (racemic) [Compound 30b],negligible,,−10%,,,
"COc1cc2c(cc1OC)[C@H]([C@@H]1C=CC(=O)O1)N(C(=O)OCc1ccccc1)CC2 (racemic) [Compound 32b, (±)-(1R,2′S)-1-(2,5-Dihydro-5-oxo-2-furyl)-2-N-benzyloxycarbonyl-6,7-dimethoxy-1,2,3,4-tetrahydroisoquinoline]",,,,,,Displacement of muscimol ([4]; concentration not given): Displacement of muscimol = 0%
COc1cc2c(cc1OC)C(C1C=CC(=O)O1)NCC2 (racemic) [Compound 42],,30%,−45 ± 6%,0%,20%,"inhibition at 10 µM ([2]; 10 μM, read-out: Inhibition of the tritiated ligands % Flu): 0%; Displacement of muscimol ([4]; 10 μM): 0%"
CC1=C[C@@H]([C@H]2c3cc4c(cc3CCN2C)OCO4)OC1=O (racemic) [Compound 43],,~20%,−7 ± 2%,,50%,Inhibition of the tritiated ligands % TBPS ([5]; 10 μM): 10%; Displacement of muscimol ([4]; 0.5 μM): 30%; Displacement of muscimol ([4]; 10 μM): 45%
O=C1C=CC(C2c3cc4c(cc3CCN2C(=O)OCc2ccccc2)OCO4)O1 (racemic) [Compound 44],45%,,,0%,,"% stimulation of the GABA currents ([1]; 50 μM compound): +215 ± 16%; Inhibition of the tritiated ligands % TBPS ([5]; 0.5 μM): 0%; Inhibition of the tritiated ligands % TBPS ([5]; 10 μM): 25%; Inhibition of the tritiated ligands % Flu ([2]; 0.5 μM): < 5%; Inhibition of the tritiated ligands % Flu ([2]; 10 μM): 20%; Displacement of muscimol ([4]; 0.5 μM): 10%; Displacement of muscimol ([4]; 10 μM): 0%; Muscimol: stimulation ([4]; 100 μM, stimulation instead of displacement): 10%"
COc1cc2c(cc1OC)C(C1C=C(C)C(=O)O1)N(C(=O)OCc1ccccc1)CC2 (racemic) [Compound 46],0%,,24 ± 5%,0%,100 μM = 0%,
COc1cc2c(cc1OC)C(C1C=C(C)C(=O)O1)N(C(=O)OCc1ccccc1)CC2 (racemic) [Compound 47],10%,,60 ± 26%,0%,100 μM = 0%,
"COc1cc2c(cc1OC)C(C1CCC(=O)O1)N(C(=O)OCc1ccccc1)CC2 (racemic) [Compound 48, (±)-(1R,2′R)-2-N-Benzyloxycarbonyl-6,7-dimethoxy-1-(2,3,4,5-tetrahydro-5-oxo-2-furyl)-1,2,3,4-tetrahydroisoquinoline]",,35%,+159 ± 31%,0%,,% stimulation of the GABA currents (100 μM) ([1]; listed as (+/−) 48): +159%
COc1cc2c(cc1OC)[C@H]([C@@H]1CCC(=O)O1)N(C(=O)OCc1ccccc1)CC2 (racemic) [Compound 49],30%,,+67 ± 9%,0%,100 μM = 0%,Inhibition of the tritiated ligands % TBPS ([5]; 10 μM): 0%
